The values below come from publication PMC3404749 (Molecular Pharmaceutics, 2012).

Data set [1] concerns the target T1, expressed human SULT1A3 (Homo sapiens, UniProt P0DMM9). Nature of the data set: Sulfonation activities of flavonoids in expressed human SULT1A3. Format: in vitro ADME. The settings on record: for sulfonation rate: pH 7.4, 37°C, n=3; for sulfate detection when SULT1A3 was used: expressed SULT1A3, LC-MS/MS and UPLC.
Data set [2] deals with T1, expressed human SULT1A3. Nature of the data set: Kinetics of flavonoid sulfonation by SULT1A3. Conditions: for Km1: SULT1A3, 0.039–20 µM substrate; for Kinetic model: SULT1A3, best-fit model by Eadie-Hofstee plot and AIC; for Ksi (substrate inhibition constant): SULT1A3, substrate inhibition model.
In the next data set the target is SULT1A3 (Homo sapiens, UniProt P0DMM9). Nature of the data set: Kinetics of flavonoid sulfonation by SULT1A3. Conditions: human.
Where [3] appears, read: expressed SULT1A3, substrate concentration 2.5 µM.
[4] abbreviates: expressed SULT1A3, substrate concentration 10 µM.

T1 sequence (P0DMM9 whole entry): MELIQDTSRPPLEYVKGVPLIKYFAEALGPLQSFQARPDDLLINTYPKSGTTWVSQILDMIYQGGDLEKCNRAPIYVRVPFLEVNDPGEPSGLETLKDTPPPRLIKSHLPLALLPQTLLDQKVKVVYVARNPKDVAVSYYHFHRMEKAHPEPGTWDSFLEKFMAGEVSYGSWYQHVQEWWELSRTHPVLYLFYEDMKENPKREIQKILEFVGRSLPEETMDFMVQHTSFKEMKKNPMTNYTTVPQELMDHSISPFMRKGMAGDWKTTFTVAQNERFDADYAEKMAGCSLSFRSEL
SULT1A3, sequence (P0DMM9 whole entry): as above

`O=c1cc(-c2ccc(O)cc2)oc2cc(O)ccc12` [7,4’DHF, 7,4'-Dihydroxyflavone] showed a sulfonation rate on expressed human SULT1A3 [1] (setting [3]) of 7.54 ± 0.34 nmol/hr/mg protein. In addition, the sulfonation rate at expressed human SULT1A3 [1] (setting [4]) was found to be 10.30 ± 1.64 nmol/hr/mg protein. Moreover, at expressed human SULT1A3 [2], the Km1 amounted to 3.42 µM, the Kinetic model entry is “Substrate inhibition” and the “Ksi (substrate inhibition constant)” value amounted to 13.81.
Consider `O=c1c(O)c(-c2ccc(O)cc2)oc2cc(O)ccc12` [3,7,4'THF, 3,7,4'-Trihydroxyflavone], for which the sulfonation rate at expressed human SULT1A3 [1] (setting [3]) was found to be 6.80 ± 1.28 nmol/hr/mg protein; at expressed human SULT1A3 [1] (setting [4]), 11.79 ± 0.33 nmol/hr/mg protein.
Take `O=c1c(O)c(-c2ccc(O)cc2)oc2ccccc12` [3,4’DHF, 3,4'-Dihydroxyflavone]: the “sulfate detection when SULT1A3 was used” value at expressed human SULT1A3 [1] was “not detected”. In addition, the sulfonation rate on expressed human SULT1A3 [1] (setting [3]) and on expressed human SULT1A3 [1] (setting [4]) was 0 nmol/hr/mg protein in each case.
On to `O=c1c(O)c(-c2ccccc2)oc2ccccc12` [3HF, 3-Hydroxyflavone], for which the “sulfate detection when SULT1A3 was used” value on expressed human SULT1A3 [1] is given as “not detected”. In addition, the sulfonation rate on expressed human SULT1A3 [1] (setting [3]) and at expressed human SULT1A3 [1] (setting [4]) was 0 nmol/hr/mg protein in each case.
For `O=C(CCc1ccc(O)cc1)c1c(O)cc(O)cc1O` [phloretin, Phloretin], the sulfonation rate on expressed human SULT1A3 [1] (setting [3]) and on expressed human SULT1A3 [1] (setting [4]) was 0 nmol/hr/mg protein each time.
Regarding `O=C1C[C@@H](c2ccc(O)cc2)Oc2cc(O)cc(O)c21` [naringenin, Naringenin], the figures for the sulfonation rate at expressed human SULT1A3 [1] (setting [3]) and on expressed human SULT1A3 [1] (setting [4]) were 3.21 ± 0.36 nmol/hr/mg protein and 12.03 ± 0.94 nmol/hr/mg protein, respectively.
The corresponding values for `O=c1c(O)c(-c2ccccc2)oc2cc(O)cc(O)c12` [3,5,7THF, 3,5,7-Trihydroxyflavone] are 13.88 ± 1.21 nmol/hr/mg protein and 24.98 ± 0.49 nmol/hr/mg protein.
On to `O=c1c(O)c(-c2ccccc2)oc2cc(O)ccc12` [3,7DHF, 3,7-Dihydroxyflavone], for which the sulfonation rate on expressed human SULT1A3 [1] (setting [3]) turned out to be 45.84 ± 1.53 nmol/hr/mg protein; on expressed human SULT1A3 [1] (setting [4]), 74.69 ± 1.05 nmol/hr/mg protein. The “Vmax-1/ Km1” value at expressed human SULT1A3 [2] (SULT1A3) amounted to 43000 µL/min/mg. The Km1 at expressed human SULT1A3 [2] was found to be 1.85 µM. Further, at expressed human SULT1A3 [2], the Kinetic model entry was “Sigmoidal kinetics of Hill equation”.
With `O=c1cc(-c2ccc(O)cc2)oc2cc(O)cc(O)c12` [apigenin, 5,7,4'-Trihydroxyflavone], the sulfonation rate on expressed human SULT1A3 [1] (setting [3]) worked out at 19.00 ± 1.58 nmol/hr/mg protein; on expressed human SULT1A3 [1] (expressed SULT1A3, substrate concentration 2.5 µM, listed as 5,7,4'THF), 19.00±1.58 nmol/hr/mg protein; on expressed human SULT1A3 [1] (setting [4]) it was 19.36 ± 0.41 nmol/hr/mg protein.
Regarding `O=c1cc(-c2ccc(O)cc2)oc2ccccc12` [4’HF, 4'-Hydroxyflavone], the “sulfate detection when SULT1A3 was used” value on expressed human SULT1A3 [1] is on record as “not detected”. Moreover, the sulfonation rate at expressed human SULT1A3 [1] (setting [3]) turned out to be 0 nmol/hr/mg protein.
As to `O=c1c(O)c(-c2ccc(O)cc2)oc2cc(O)cc(O)c12` [kaempferol, 3,5,7,4’tetrahydroxyflavone], the figures for the sulfonation rate on expressed human SULT1A3 [1] (setting [3]) and at expressed human SULT1A3 [1] (setting [4]) were 3.78 ± 0.79 nmol/hr/mg protein and 5.77 ± 0.22 nmol/hr/mg protein, respectively.
Broadly, the microsomal CLint is the capacity of the preparation to metabolise the compound, expressed as a volume cleared per time. The low end stands for greater metabolic stability, the high end for faster metabolism. In turn, `O=c1cc(-c2ccccc2)oc2cc(O)ccc12` [7HF, 7-Hydroxyflavone] displayed a sulfonation rate at expressed human SULT1A3 [1] (setting [3]) of 35.66 ± 4.72 nmol/hr/mg protein. This molecule displayed a sulfonation rate at expressed human SULT1A3 [1] (setting [4]) of 48.92 ± 5.18 nmol/hr/mg protein. Also, at expressed human SULT1A3 [2], the Km1 turned out to be 2.80 µM, the Kinetic model result is “substrate inhibition kinetics” and the “Ksi (substrate inhibition constant)” value was 23.12. Besides, the microsomal CLint on SULT1A3 turned out to be 30400 µL/min/mg.
Regarding `O=c1cc(-c2ccccc2)oc2cc(O)cc(O)c12` [5,7DHF, 5,7-Dihydroxyflavone], the figures for the sulfonation rate at expressed human SULT1A3 [1] (setting [3]) and at expressed human SULT1A3 [1] (setting [4]) were 62.30 ± 2.54 nmol/hr/mg protein and 85.37 ± 1.53 nmol/hr/mg protein, respectively. Also, the Km1 at expressed human SULT1A3 [2] worked out at 2.73 µM. In addition, the Kinetic model result on expressed human SULT1A3 [2] was “Biphasic kinetics”. In addition, the “Vmax-2 (biphasic)” value at expressed human SULT1A3 [2] (SULT1A3, biphasic kinetics) is 17.38 nmol/min/mg. On expressed human SULT1A3 [2] (SULT1A3, biphasic kinetics, low-affinity phase), the Km2 was found to be 1e-06 mM.
Regarding `O=c1c(-c2ccc(O)cc2)coc2cc(O)cc(O)c12` [genistein, Genistein], the “sulfate detection when SULT1A3 was used” value on expressed human SULT1A3 [1] is “not detected”. The sulfonation rate on expressed human SULT1A3 [1] (setting [3]) and at expressed human SULT1A3 [1] (setting [4]) was 0 nmol/hr/mg protein in each case.
As to `O=c1cc(-c2ccccc2)oc2cccc(O)c12` [5HF, 5-Hydroxyflavone], at expressed human SULT1A3 [1], the “sulfate detection when SULT1A3 was used” value is recorded as “not detected”. In addition, at expressed human SULT1A3 [1] (setting [3]), the sulfonation rate is listed as 0 nmol/hr/mg protein.
